Source: patent publication US20230390384A1 (priority 2020, published 2023)

How the values were obtained:
COVID-19 S1 antigen = format: in vivo, SARS-CoV-2; conditions: Example 2, FIG. 6a; 5 μg each S1 and RBD; L-pampo 75 μg Pam3CSK4 + 60 μg poly(I:C) vs Alum, Addavax, AddaS03; Balb/c mice i.m. twice at 3-week intervals, serum 2 weeks after second immunization
COVID-19 RBD antigen = format: in vivo, SARS-CoV-2; conditions: Example 2, FIG. 6b; 5 μg each S1 and RBD; L-pampo 75 μg Pam3CSK4 + 60 μg poly(I:C) vs Alum, Addavax, AddaS03; Balb/c mice i.m. twice at 3-week intervals, serum 2 weeks after second immunization
Mouse splenocytes = experiment: IFN-γ ELISPOT on splenocytes of immunized mice (cellular immune response); format: in vivo, Balb/c mice; conditions: Example 3, FIG. 11; test vaccine using only poly(I:C) as adjuvant, among all test vaccines

Substance | S1 antigen-specific antibody titer (COVID-19 S1 antigen) | RBD antigen-specific antibody titer (COVID-19 RBD antigen) | IFN-γ spot formation (ELISPOT) (Mouse splenocytes)
N-palmitoyl-S-[2,3-bis(palmitoyloxy)-(2RS)-propyl]-[R]-cystein-SKKKK [Pam3CSK4] | relatively superior | relatively superior | 
poly(I:C) |  |  | most IFN-γ spot formation
